Test results as given in patent publication US8778964B2, “Hydroxy-substituted imidazo[1,2-a]-pyridinecarboxamides and their use” (Bayer Pharma Aktiengesellschaft, priority 2012, dated 2014).
Structures can show the parent of a compound that is named as a salt.

Test system: recombinant guanylate cyclase reporter cell line
Assay: Action on recombinant guanylate cyclase reporter cell line (MEC)
Type: cell-based
Conditions: in some cases mean values obtained from individual determinations
Summary of the method: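 Cell-based reporter assay with recombinant guanylate cyclase expressed in a reporter cell line, per a published method. Activity reported as minimal effective concentration (MEC), in some cases as the mean of individual determinations.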

SMILES	minimal effective concentration	minimal effective concentration (trifluoroacetate)
Cc1nc2c(OCc3ccccc3)cccn2c1C(=O)N[C@@H](C)CO [Example 46, 8-(Benzyloxy)-N-[(2S)-1-hydroxypropan-2-yl]-2-methylimidazo[1,2-a]pyridine-3-carboxamide]	3 µM	
CCCC[C@H](CO)NC(=O)c1c(C)nc2c(OCc3c(F)ccc(F)c3F)cccn12 [Example 2, N-[(2R)-1-hydroxyhexan-2-yl]-2-methyl-8-[(2,3,6-trifluorobenzyl)oxy]imidazo[1,2-a]pyridine-3-carboxamide]	0.03 µM	
Cc1nc2c(OCc3c(F)cccc3F)cccn2c1C(=O)NC(CO)CO [Example 26, 8-[(2,6-difluorobenzyl)oxy]-N-(1,3-dihydroxy-propan-2-yl)-2-methylimidazo[1,2-a]pyridine-3-carboxamide]	2 µM	
CCCC[C@H](CO)NC(=O)c1c(C)nc2c(OCc3c(Cl)cccc3Cl)cccn12 [Example 8, 8-[(2,6-dichlorobenzyl)oxy]-N-[(2R)-1-hydroxyhexan-2-yl]-2-methylimidazo[1,2-a]pyridine-3-carboxamide]	0.3 µM	
CCOCC(CO)NC(=O)c1c(C)nc2c(OCc3c(F)cccc3F)cccn12 (single isomer, unassigned; ent-8) [Example 161, ent-8-[(2,6-Difluorobenzyl)oxy]-N-(1-ethoxy-3-hydroxypropan-2-yl)-2-methylimidazo[1,2-a]-pyridine-3-carboxamide (enantiomer A)]	1 µM	
CC[C@H](CO)NC(=O)c1c(C)nc2c(OCc3cccc(Cl)c3Cl)cccn12 [Example 45, 8-[(2,3-dichlorobenzyl)oxy]-N-[(2R)-1-hydroxybutan-2-yl]-2-methylimidazo[1,2-a]-pyridine-3-carboxamide]	0.65 µM	
Cc1nc2c(OCC3CCCCC3)cccn2c1C(=O)NC(CO)CO [Example 85, 8-(cyclohexylmethoxy)-N-(1,3-dihydroxypropan-2-yl)-2-methylimidazo[1,2-a]pyridine-3-carboxamide]	0.38 µM	
Cc1nc2c(OCC3CCC3)cccn2c1C(=O)NCCC1(O)CCCCC1 [Example 99, 8-(cyclobutylmethoxy)-N-[2-(1-hydroxycyclohexyl)ethyl]-2-methylimidazo[1,2-a]pyridine-3-carboxamide]	3 µM	
Cc1nc2c(OCC3CCCCC3)cccn2c1C(=O)NCCCCO [Example 74, 8-(cyclohexylmethoxy)-N-(4-hydroxybutyl)-2-methylimidazo[1,2-a]pyridine-3-carboxamide]	0.2 µM	
Cc1nc2c(OCc3ccccc3F)cccn2c1C(=O)NC(CO)CO [Example 51, N-(1,3-dihydroxypropan-2-yl)-8-[(2-fluorobenzyl)oxy]-2-methylimidazo[1,2-a]pyridine-3-carboxamide]	5.5 µM	
Cc1nc2c(OCc3c(F)cccc3F)cccn2c1C(=O)NC(CCCC(F)(F)F)C(C)(C)O (single isomer, unassigned; ent-8) [Example 156, ent-8-[(2,6-Difluorobenzyl)oxy]-2-methyl-N-(7,7,7-trifluoro-2-hydroxy-2-methylheptan-3-yl)-imidazo[1,2-a]pyridine-3-carboxamide (enantiomer B)]	0.03 µM	
Cc1nc2c(OCC3CCCCC3)cccn2c1C(=O)NCCOCCO [Example 86, 8-(cyclohexylmethoxy)-N-[2-(2-hydroxyethoxy)ethyl]-2-methylimidazo[1,2-a]-pyridine-3-carboxamide]	0.65 µM	
Cc1nc2c(OCc3c(F)cccc3F)cccn2c1C(=O)NC(CO)CC(F)(F)F (racemic) [Example 100, rac-8-[(2,6-Difluorobenzyl)oxy]-2-methyl-N-(4,4,4-trifluoro-1-hydroxybutan-2-yl)imidazo[1,2-a]-pyridine-3-carboxamide trifluoroacetate]	0.03 µM	
CCCC[C@H](CO)NC(=O)c1c(C)nc2c(OCCC(C)C)cccn12 [Example 159, N-[(2R)-1-Hydroxyhexan-2-yl]-2-methyl-8-(3-methylbutoxy)imidazo[1,2-a]pyridine-3-carboxamide]	1 µM	
Cc1nc2c(OCC3CCCCC3)cccn2c1C(=O)NC[C@H](O)CO [Example 68, 8-(cyclohexylmethoxy)-N-[(2S)-2,3-dihydroxypropyl]-2-methylimidazo[1,2-a]pyridine-3-carboxamide]	0.03 µM	
Cc1nc2c(OCc3c(F)cccc3F)cc(Cl)cn2c1C(=O)N[C@@H](CO)CCCO [Example 127, 6-Chloro-8-[(2,6-difluorobenzyl)oxy]-N-[(2R)-1,5-dihydroxypentan-2-yl]-2-methylimidazo[1,2-a]-pyridine-3-carboxamide]	0.3 µM	
Cc1nc2c(OCc3c(F)cccc3F)cccn2c1C(=O)NC(CO)CCCC(F)(F)F (racemic) [Example 114, rac-8-[(2,6-difluorobenzyl)oxy]-2-methyl-N(6,6,6-trifluoro-1-hydroxyhexan-2-yl)imidazo[1,2-a]pyridine-3-carboxamide]	0.03 µM	

SMILES	minimal effective concentration	minimal effective concentration (trifluoroacetate)
Cc1nc2c(OCc3c(F)cccc3F)cccn2c1C(=O)NC(CO)COCC(C)C (racemic) [Example 163, rac-8-[(2,6-Difluorobenzyl)oxy]-N-(1-hydroxy-3-isobutoxypropan-2-yl)-2-methylimidazo[1,2-a]-pyridine-3-carboxamide]	1 µM	
Cc1nc2c(OCC3CCCCC3)cccn2c1C(=O)N[C@H](CO)CC(C)C [Example 95, 8-(cyclohexylmethoxy)-N-[(2S)-1-hydroxy-4-methylpentan-2-yl]-2-methylimidazo[1,2-a]pyridine-3-carboxamide]	3 µM	
Cc1nc2c(OCc3c(F)cccc3F)cccn2c1C(=O)NC(CCC(F)(F)F)C(C)(C)O (single isomer, unassigned; ent-8) [Example 155, ent-8-[(2,6-Difluorobenzyl)oxy]-2-methyl-N-(6,6,6-trifluoro-2-hydroxy-2-methylhexan-3-yl)-imidazo[1,2-a]pyridine-3-carboxamide (enantiomer B)]	0.1 µM	
CCCC[C@@H](NC(=O)c1c(C)nc2c(OCc3c(F)cccc3F)cccn12)C(C)O (stereo partly drawn) [Example 140, 8-[(2,6-Difluorobenzyl)oxy]-N-[(3R)-2-hydroxyheptan-3-yl]-2-methylimidazo[1,2-a]pyridine-3-carboxamide]	0.03 µM	
CCCC[C@@H](NC(=O)c1c(C)nc2c(OCc3c(F)cccc3F)cccn12)C(O)C(F)(F)F (stereo partly drawn) [Example 142, 8-[(2,6-Difluorobenzyl)oxy]-2-methyl-N-[(3R)-1,1,1-trifluoro-2-hydroxyheptan-3-yl]imidazo[1,2-a]pyridine-3-carboxamide]	0.1 µM	
Cc1nc2c(OCc3c(F)cccc3F)cccn2c1C(=O)NC(CO)CCCC(F)(F)F (racemic) [Example 102, rac-8-[(2,6-difluorobenzyl)oxy]-2-methyl-N-(6,6,6-trifluoro-1-hydroxyhexan-2-yl)-imidazo[1,2-a]pyridine-3-carboxamide trifluoroacetate]		0.1 µM
CCCC[C@H](CO)NC(=O)c1c(C)nc2c(OCc3c(F)cccc3F)cc(C)cn12 [Example 133, 8-[(2,6-difluorobenzyl)oxy]-N-[(2R)-1-hydroxyhexan-2-yl]-2,6-dimethylimidazo[1,2-a]pyridine-3-carboxamide]	0.01 µM	
Cc1nc2c(OCc3c(F)cccc3F)cccn2c1C(=O)NC(CO)c1ccccn1 (racemic) [Example 119, rac-8-[(2,6-difluorobenzyl)oxy]-N-[2-hydroxy-1-(pyridin-2-yl)ethyl]-2-methylimidazo[1,2-a]-pyridine-3-carboxamide]	0.3 µM	
Cc1nc2c(OCc3c(F)cccc3F)cccn2c1C(=O)NC(CO)CCC(F)(F)F (racemic) [Example 101, rac-8-[(2,6-difluorobenzyl)oxy]-2-methyl-N-(5,5,5-trifluoro-1-hydroxypentan-2-yl)-imidazo[1,2-a]pyridine-3-carboxamide trifluoroacetate]	0.1 µM	
Cc1nc2c(OCc3c(F)cccc3F)cccn2c1C(=O)NC[C@@H](O)c1ccccc1 [Example 32, 8-[(2,6-difluorobenzyl)oxy]-N-[(2S)-2-hydroxy-2-phenylethyl]-2-methylimidazo[1,2-a]pyridine-3-carboxamide]	1 µM	
Cc1nc2c(OCc3c(F)cccc3F)cccn2c1C(=O)NC(c1ccc(Cl)cc1)C(C)(C)O (racemic) [Example 151, rac-N-[1-(4-chlorophenyl)-2-hydroxy-2-methylpropyl]-8-[(2,6-difluorobenzyl)oxy]-2-methylimidazo[1,2-a]pyridine-3-carboxamide]	0.3 µM	
Cc1nc2c(OCc3c(F)cccc3F)cccn2c1C(=O)NCCC(C)(C)O [Example 153, 8-[(2,6-difluorobenzyl)oxy]-N-(3-hydroxy-3-methylbutyl)-2-methylimidazo[1,2-a]pyridine-3-carboxamide]	0.3 µM	
Cc1nc2c(OCc3c(F)cccc3F)cccn2c1C(=O)NCCC(C)O (racemic) [Example 28, (rac)-8-[(2,6-difluorobenzyl)oxy]-N-(3-hydroxybutyl)-2-methylimidazo[1,2-a]pyridine-3-carboxamide]	0.65 µM	
CCCC[C@H](CO)NC(=O)c1c(C)nc2c(OCc3c(F)c(F)cc(F)c3F)cccn12 [Example 7, N-[(2R)-1-hydroxyhexan-2-yl]-2-methyl-8-[(2,3,5,6-tetrafluorobenzyl)oxy]imidazo[1,2-a]pyridine-3-carboxamide]	0.3 µM	
Cc1nc2c(OCc3c(F)cccc3F)cccn2c1C(=O)N[C@@H](CO)C(C)C [Example 29, 8-[(2,6-difluorobenzyl)oxy]-N-[(2R)-1-hydroxy-3-methylbutan-2-yl]-2-methylimidazo[1,2-a]-pyridine-3-carboxamide]	0.1 µM	
C=CCC(CO)NC(=O)c1c(C)nc2c(OCC3CCCCC3)cccn12 (racemic) [Example 70, (rac)-8-(cyclohexylmethoxy)-N-(1-hydroxypent-4-en-2-yl)-2-methylimidazo[1,2-a]pyridine-3-carboxamide]	0.1 µM	
